Experiments:
Chitotriosidase-1 [1] = target: Chitotriosidase-1 (Mus musculus, UniProt Q9D7Q1); assay: Inhibition of full-length C-terminal his-tagged mouse CHIT1 expressed in CHO-K1 cells assessed as reduction in chitinolytic activity using 4-methylumbelliferyl-beta-D-N,N',N\"-triacetylchitotrioside as substrate after 60 mins by fluorometric assay; assay type: cell-based
[2] = target: Acidic mammalian chitinase (Mus musculus, UniProt Q91XA9); assay: Inhibition of full-length C-terminal his-tagged mouse acidic mammalian chitinase expressed in CHO-K1 cells assessed as reduction in chitinolytic activity using 4-methylumbelliferyl-beta-D-N,N'-diacetylchitobioside hydrate as substrate after 60 mins by fluorometric assay
Chitotriosidase-1 [3] = target: Chitotriosidase-1 (Homo sapiens, UniProt Q13231); assay: Inhibition of full-length C-terminal his-tagged human CHIT1 expressed in CHOK1 cells assessed as reduction in chitinolytic activity using 4-methylumbelliferyl-beta-D-N,N',N\"-triacetylchitotrioside as substrate after 60 mins by fluorometric assay; assay type: cell-based
[4] = target: Voltage-gated inwardly rectifying potassium channel KCNH2 (Homo sapiens, UniProt Q12809); assay: Displacement of Tracer Red from human ERG by fluorescence polarization assay
[5] = target: dopamine transporter (DAT) (Homo sapiens, UniProt Q01959); assay: Displacement of [3H]BTCP from recombinant human dopamine transporter at 10 uM after 120 mins by scintillation counting analysis relative to control; assay type: ADME; conditions: probe [3H]BTCP
[6] = Lipophilicity, logD of the compound at pH 7.4; assay type: physicochemical; conditions: buffer
[7] = target: Acidic mammalian chitinase (Homo sapiens, UniProt Q9BZP6); assay: Inhibition of full-length C-terminal his-tagged human acidic mammalian chitinase expressed in CHOK1 cells assessed as reduction in chitinolytic activity using 4-methylumbelliferyl-beta-D-N,N-diacetylchitobioside hydrate as substrate after 60 mins by fluorometric assay
Chain of Acidic mammalian chitinase (Homo sapiens, UniProt Q9BZP6) (Q9BZP6 whole entry): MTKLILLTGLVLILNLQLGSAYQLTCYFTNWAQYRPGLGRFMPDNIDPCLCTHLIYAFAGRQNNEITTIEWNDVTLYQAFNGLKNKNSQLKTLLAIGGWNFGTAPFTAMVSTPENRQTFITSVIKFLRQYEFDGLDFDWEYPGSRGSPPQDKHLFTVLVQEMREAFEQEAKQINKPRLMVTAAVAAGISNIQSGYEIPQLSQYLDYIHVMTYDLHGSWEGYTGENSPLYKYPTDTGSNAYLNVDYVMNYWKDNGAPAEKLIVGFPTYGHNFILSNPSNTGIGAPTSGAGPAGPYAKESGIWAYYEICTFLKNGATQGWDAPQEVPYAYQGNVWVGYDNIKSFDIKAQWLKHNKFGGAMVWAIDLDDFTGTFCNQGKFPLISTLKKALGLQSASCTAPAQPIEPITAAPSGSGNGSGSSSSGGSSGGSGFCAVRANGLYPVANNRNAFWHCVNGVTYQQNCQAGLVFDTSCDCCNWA

Chain of Chitotriosidase-1 (Homo sapiens, UniProt Q13231) (Q13231 whole entry): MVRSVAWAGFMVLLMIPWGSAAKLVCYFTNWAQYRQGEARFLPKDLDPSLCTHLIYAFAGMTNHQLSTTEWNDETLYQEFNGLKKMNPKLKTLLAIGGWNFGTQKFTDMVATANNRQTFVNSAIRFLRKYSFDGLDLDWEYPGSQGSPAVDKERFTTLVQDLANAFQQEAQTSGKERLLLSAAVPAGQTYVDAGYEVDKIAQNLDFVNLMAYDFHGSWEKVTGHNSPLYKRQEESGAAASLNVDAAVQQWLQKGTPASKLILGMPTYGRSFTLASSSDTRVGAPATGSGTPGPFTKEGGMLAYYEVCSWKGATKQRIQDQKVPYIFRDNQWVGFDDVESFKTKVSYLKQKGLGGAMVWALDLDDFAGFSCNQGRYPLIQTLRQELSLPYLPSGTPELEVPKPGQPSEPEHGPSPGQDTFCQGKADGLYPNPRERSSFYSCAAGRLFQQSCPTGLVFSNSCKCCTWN
Chain of Chitotriosidase-1 (Mus musculus, UniProt Q9D7Q1) (Q9D7Q1 whole entry): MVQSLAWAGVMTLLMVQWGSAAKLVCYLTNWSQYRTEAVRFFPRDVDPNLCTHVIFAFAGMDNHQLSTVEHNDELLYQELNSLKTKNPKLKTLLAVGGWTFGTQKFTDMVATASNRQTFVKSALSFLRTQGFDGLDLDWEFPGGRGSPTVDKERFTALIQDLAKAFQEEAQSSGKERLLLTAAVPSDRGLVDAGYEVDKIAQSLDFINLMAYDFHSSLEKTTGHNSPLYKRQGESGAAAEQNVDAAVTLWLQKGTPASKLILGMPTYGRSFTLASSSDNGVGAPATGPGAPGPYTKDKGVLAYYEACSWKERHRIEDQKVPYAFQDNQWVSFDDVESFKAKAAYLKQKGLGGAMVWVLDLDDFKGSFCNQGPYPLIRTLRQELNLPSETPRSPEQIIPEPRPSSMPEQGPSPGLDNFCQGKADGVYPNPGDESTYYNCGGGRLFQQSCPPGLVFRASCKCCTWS
Chain of Voltage-gated inwardly rectifying potassium channel KCNH2 (Q12809 whole entry): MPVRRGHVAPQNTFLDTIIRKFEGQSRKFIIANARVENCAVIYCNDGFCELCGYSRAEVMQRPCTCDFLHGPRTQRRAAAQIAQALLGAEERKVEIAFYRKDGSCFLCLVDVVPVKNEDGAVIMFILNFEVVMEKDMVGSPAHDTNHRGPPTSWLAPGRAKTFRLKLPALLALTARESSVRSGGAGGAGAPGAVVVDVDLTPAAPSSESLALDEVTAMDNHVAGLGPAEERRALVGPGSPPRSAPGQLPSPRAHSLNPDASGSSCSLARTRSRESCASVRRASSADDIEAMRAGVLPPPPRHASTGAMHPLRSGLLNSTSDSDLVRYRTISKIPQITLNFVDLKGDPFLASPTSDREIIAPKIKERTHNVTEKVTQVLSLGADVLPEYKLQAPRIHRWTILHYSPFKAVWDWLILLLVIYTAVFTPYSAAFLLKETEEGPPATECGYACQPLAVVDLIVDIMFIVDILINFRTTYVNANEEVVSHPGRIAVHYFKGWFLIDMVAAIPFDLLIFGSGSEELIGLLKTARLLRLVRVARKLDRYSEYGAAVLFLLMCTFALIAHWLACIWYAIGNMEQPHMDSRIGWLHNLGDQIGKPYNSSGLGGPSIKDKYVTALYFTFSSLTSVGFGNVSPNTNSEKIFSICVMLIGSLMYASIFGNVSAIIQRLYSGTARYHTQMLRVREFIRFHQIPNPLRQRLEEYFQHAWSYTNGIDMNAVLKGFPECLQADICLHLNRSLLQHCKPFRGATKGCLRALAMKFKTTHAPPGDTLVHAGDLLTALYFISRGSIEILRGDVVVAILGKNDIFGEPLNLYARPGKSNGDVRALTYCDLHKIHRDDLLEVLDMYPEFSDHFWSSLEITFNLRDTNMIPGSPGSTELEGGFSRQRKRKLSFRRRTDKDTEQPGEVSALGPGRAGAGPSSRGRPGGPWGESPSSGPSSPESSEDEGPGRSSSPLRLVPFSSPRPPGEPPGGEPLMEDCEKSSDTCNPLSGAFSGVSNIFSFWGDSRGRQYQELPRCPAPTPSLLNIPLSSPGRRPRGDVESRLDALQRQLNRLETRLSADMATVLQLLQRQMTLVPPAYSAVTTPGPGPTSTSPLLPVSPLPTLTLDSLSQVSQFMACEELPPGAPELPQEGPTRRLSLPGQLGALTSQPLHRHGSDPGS
Chain of dopamine transporter (DAT) (Q01959 whole entry): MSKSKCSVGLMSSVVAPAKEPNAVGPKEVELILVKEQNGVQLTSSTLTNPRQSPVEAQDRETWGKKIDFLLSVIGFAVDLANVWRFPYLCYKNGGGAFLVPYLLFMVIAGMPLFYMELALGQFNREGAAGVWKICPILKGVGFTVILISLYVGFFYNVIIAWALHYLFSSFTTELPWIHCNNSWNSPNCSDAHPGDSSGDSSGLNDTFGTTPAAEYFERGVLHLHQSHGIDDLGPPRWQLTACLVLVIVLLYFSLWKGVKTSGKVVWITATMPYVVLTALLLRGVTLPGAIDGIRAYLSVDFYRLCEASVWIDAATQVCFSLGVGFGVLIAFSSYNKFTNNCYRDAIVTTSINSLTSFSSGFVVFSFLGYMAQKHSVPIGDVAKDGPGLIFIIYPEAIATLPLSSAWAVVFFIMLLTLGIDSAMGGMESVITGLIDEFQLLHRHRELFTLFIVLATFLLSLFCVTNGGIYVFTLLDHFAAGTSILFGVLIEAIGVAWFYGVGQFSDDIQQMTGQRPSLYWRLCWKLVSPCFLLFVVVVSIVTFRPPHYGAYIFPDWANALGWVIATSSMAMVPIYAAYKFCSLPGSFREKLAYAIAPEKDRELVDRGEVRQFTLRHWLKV
Chain of Acidic mammalian chitinase (Mus musculus, UniProt Q91XA9) (Q91XA9 whole entry): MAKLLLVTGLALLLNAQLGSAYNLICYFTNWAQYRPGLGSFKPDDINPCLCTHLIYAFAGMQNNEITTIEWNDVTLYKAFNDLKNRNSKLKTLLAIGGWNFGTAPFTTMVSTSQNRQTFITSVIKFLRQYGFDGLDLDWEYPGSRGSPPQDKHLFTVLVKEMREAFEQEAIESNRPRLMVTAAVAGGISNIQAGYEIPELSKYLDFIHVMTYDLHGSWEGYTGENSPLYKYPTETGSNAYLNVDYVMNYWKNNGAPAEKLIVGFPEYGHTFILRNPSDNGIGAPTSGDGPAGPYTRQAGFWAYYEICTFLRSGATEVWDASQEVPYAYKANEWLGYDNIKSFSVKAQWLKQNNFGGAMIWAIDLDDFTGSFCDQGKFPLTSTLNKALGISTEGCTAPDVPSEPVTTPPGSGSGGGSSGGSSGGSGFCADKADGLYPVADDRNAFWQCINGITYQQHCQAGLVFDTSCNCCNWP

Row | SMILES | IC50 (Chitotriosidase-1 [1]) [nM] | IC50 [2] [nM] | IC50 (Chitotriosidase-1 [3]) [nM] | IC50 [4] [nM] | inhibition at 2 h, 10 µM [5] [%] | logD [6] | IC50 [7] [nM]
1 | CC(=O)NCCN(CCc1ccc(Cl)cc1)C1CCN(c2nc(N)n[nH]2)CC1 | 8100 | 35 | 495 | 3300 |  |  | 
2 | CO[C@@H](C)CN(CCc1ccc(Cl)cc1)C1CCN(c2nc(N)n[nH]2)CC1 | 1150 | 53 | 44 | 17600 | 33 |  | 
3 | COCCN(CCc1ccc(Cl)cc1)C1CCN(c2nc(N)n[nH]2)CC1 | 1700 | 55 | 84 | 2800 |  |  | 
4 | CNC(=O)CN(CCc1ccc(Cl)cc1)C1CCN(c2nc(N)n[nH]2)CC1 | 48000 | 1150 | 1800 | 2600 |  |  | 
5 | CO[C@H]1C[C@H](Cc2ccc(Cl)cc2)N(C2CCN(c3nnc(N)[nH]3)CC2)C1 | 345 | 65 | 47 |  | 59 | 1.6 | 
6 | Nc1n[nH]c(N2CCC(N(CCc3ccc(Cl)cc3)CC3CCCO3)CC2)n1 (centres undefined) | 1080 | 17 | 27 | 15000 | 74 |  | 
7 | Nc1n[nH]c(N2CCC(N(CCc3ccc(Cl)cc3)CC(=O)O)CC2)n1 | 21000 | 395 | 1900 | 8000 |  |  | 
8 | COC(C)(C)CN(CCc1ccc(Cl)cc1)C1CCN(c2nc(N)n[nH]2)CC1 | 3650 |  | 505 | 3500 |  |  | 
9 | Nc1nc(N2CCC(N3C[C@H](O)C[C@@H]3Cc3ccc(Cl)cc3)CC2)n[nH]1 | 135 | 68 |  | 55000 |  | 0.68 | 
10 | CNC(=O)NCCN(CCc1ccc(Cl)cc1)C1CCN(c2nc(N)n[nH]2)CC1 | 9100 | 130 | 1430 | 1800 |  |  | 
11 | Nc1n[nH]c(N2CCC(N(CCO)CCc3ccc(Cl)cc3)CC2)n1 | 4800 | 135 | 384 | 6300 |  |  | 
12 | Nc1nnc(N2CCC(N3CCCC[C@@H]3Cc3ccc(Cl)cc3)CC2)[nH]1 | 87 | 81 | 41 | 8300 |  | 1.41 | 23
13 | Nc1n[nH]c(N2CCC(N3CCC(c4ccc(Cl)cc4)C3)CC2)n1 (centres undefined) | 37000 | 2600 | 19500 |  |  |  | 
14 | Nc1nnc(N2CCC(N3CCC[C@@H]3Cc3ccc(Cl)cc3)CC2)[nH]1 | 430 | 120 |  | 4000 |  | 1.15 | 
